We go through six compounds from patent publication US20140371189A1, “TESTOSTERONE REPLACEMENT THERAPY IN ANIMALS, INCLUDING DOGS” (David Bieber Consulting, LLC, priority 2013, published 2014).

For series [1] the following is noted: cited from earlier work; for effectiveness when taken orally: oral.
The conditions of series [2]: injectable ester; cited from earlier work.
Series [3] has as its system dogs compromised by osteoarthritis, intervertebral disc disease, hip dysplasia, weakness due to old age, muscle atrophy and joint pain. As to the kind of experiment: Example 1: testosterone replacement therapy study, medical record review. It is filed as in vivo, dog. The source says: In order to treat dogs, horses, or other animals in need of testosterone replacement therapy, the following protocol should be followed: • (1) Obtain information about potential patient via a clinical intake process and questionnaire such as the example shown in the drawing figure; • (2) Conduct a general physical examination on potential patient; • (3) Conduct laboratory tests on potential patient's blood and/or urine, including measuring initial testosterone levels in the patient's blood. This can be total testosterone or free testosterone. […]
A study was undertaken to determine if dogs compromised by osteoarthritis (also known as degenerative joint disease), intervertebral disc disease, hip dysplasia, weakness due to old age, muscle atrophy and joint pain experienced improvements following testosterone replacement therapy. […] Data from the medical records were analyzed to determine the efficacy of the treatment protocol. Data recorded from medical records included breed, date of birth, age, sex, neutered vs. intact, baseline testosterone level, date of testosterone injections and improvement status (improved vs. no noticeable improvement). […]
Following informed assent by each dog owner, each dog underwent an initial clinical exam including a detailed health history, list of medications, a CBC, urinalysis and baseline testosterone level were conducted. […] Changes in mobility, pain level/medications needed, energy and muscle tone were assessed and testosterone dosage was adjusted if needed prior to each injection. Follow-up testosterone levels were measured one week after the initial injection and on an as needed basis throughout the course of treatment. […]

For series [4] the following is noted: free, non-esterified form; cited from earlier work.
For series [5], the system named is neutered male Cocker Spaniel with declines in mobility and arthritis. As to the kind of experiment: Example 2: clinical outcome and side effects in a neutered male Cocker Spaniel. The method, then:
(§1) A 28.7 pound, 12 year and two month-old neutered male Cocker Spaniel named Blackjack was evaluated because of his owner's concerns about declines in his level of mobility and arthritis.
(§2) During month one of the protocol, Blackjack was screened for treatment by conducting a thorough physical exam, complete blood chemistry, urinalysis, and testosterone level. […] An initial injection of testosterone IM was administered and Blackjack began treatment with Previcoxx 57 mg once per day. A follow-up was conducted by phone one day after the initial injection and again at two weeks post injection.
(§3) Previcoxx was discontinued and Metacam was prescribed. During a follow-up appointment Blackjack received an injection of testosterone IM. […] It was decided to increase the dosage of testosterone.
Radiographs were taken to rule out degenerative joint disease and neoplasia. During month three, the patient received another injection of testosterone IM. […] Blackjack was then operated on to treat the fracture.
Monthly injections of testosterone continued. The dosage of testosterone had to be lowered after surgery due to concerns about Blackjack being too active after surgery to repair his fracture and was raised again after healing was complete. During month nine, Blackjack underwent further surgery to remove multiple skin growths.
During month ten Blackjack received an injection of testosterone, returning him to the dosage he received prior to his injury and subsequent surgery. […] During month twelve Blackjack continued receiving testosterone injections, and during month thirteen additional skin growths had to be removed.

Series [6] in a line: Example 2: blood testosterone level during testosterone therapy. As to conditions: for testosterone level: dog Blackjack. The method, then: as §1, §2, §3
At this time a regular annual exam was conducted.

Consider `CCCCCCCCCCC(=O)O[C@H]1CC[C@H]2[C@@H]3CCC4=CC(=O)CC[C@]4(C)[C@H]3CC[C@]12C` [testosterone undecanoate], for which, in series [1], the “effectiveness when taken orally” value was “effective when taken orally”. Moreover, the “time to elimination from the body” value in series [1] (orally administered) is 3 to 4 h.

For `C[C@]12CC[C@H]3[C@@H](CCC4=CC(=O)CC[C@@]43C)[C@@H]1CC[C@@H]2OC(=O)CCC1CCCC1` [Testosterone cypionate], the release time in series [2] was 8 to 10 days.

With `C[C@]12CC[C@H]3[C@@H](CCC4=CC(=O)CC[C@@]43C)[C@@H]1CC[C@@H]2OC(=O)CCc1ccccc1` [Testosterone phenylpropionate], the release time in series [2] is given as 1-3 weeks.

As to Testosterone propionate, in series [2], the release time was 3 to 4 days.

As to `CCCCCCC(=O)O[C@H]1CC[C@H]2[C@@H]3CCC4=CC(=O)CC[C@]4(C)[C@H]3CC[C@]12C` [Testosterone enanthate], the release time in series [2] was 8 to 10 days.

On to `C[C@]12CC[C@H]3[C@@H](CCC4=CC(=O)CC[C@@]43C)[C@@H]1CC[C@@H]2O` [testosterone], for which the “effectiveness when taken orally” value in series [1] was “not effective”. In addition, the “subjects that made improvements after the study protocol” value in series [3] (25 dogs analysed, n=23 improved, monthly testosterone injections, improvement = more mobility and/or energy, less pain medication, less muscle atrophy) is “ninety-two”. For the same compound, the side effects entry is listed as “no side effects were observed” in series [3] (evaluated at monthly follow-ups, all dogs); “No side effects were reported” in series [5] (follow-up one day and two weeks after initial IM injection). Besides, in series [3] (two of 25 dogs), the “dogs whose injection dosages had to be lowered due to becoming too active” value was 8%. Also, the “solubility in oil and water” value in series [4] is “poor solubility in both oil and water”. The “healing of distal humeral lateral condylar fracture while being treated” value in series [5] (after surgery) is recorded as “completely healed from this fracture within two months of surgery”. Moreover, the “behaviour leading to dosage decrease” value in series [5] (month eleven) is on record as “mounting other dogs”. In addition, in series [5] (owner interview in week 57 of the protocol), the owner-reported improvements entry was “improvements in Blackjack's ability to jump on furniture, ascend and descend stairs, and rise from sitting and lying positions”. The “adverse side effects from the treatment” value in series [5] (whole course of treatment) was “no adverse side effects”. For the same compound, the testosterone level in series [6] (second month, one week after second IM injection, baseline <40 pg/ml) came to 604.80 pg/mL; in series [6] (third measurement (month three/four) after increased IM dosage) it was 1224.50 pg/mL. In series [6] (male, Cocker Spaniel, dog, blood, intramuscular), the concentration at 4 month amounted to 1.22 ng/mL.
